Reference: patent US8796256B2 (Janssen Pharmaceutica NV, priority 2010, dated 2014)
pEC50: −log10 of the molar value.

Target: T1, ERR1 (also known as ERR-α or ERR-1) (Homo sapiens, UniProt P11474)
T1 sequence (P11474 193-421 limits assumed): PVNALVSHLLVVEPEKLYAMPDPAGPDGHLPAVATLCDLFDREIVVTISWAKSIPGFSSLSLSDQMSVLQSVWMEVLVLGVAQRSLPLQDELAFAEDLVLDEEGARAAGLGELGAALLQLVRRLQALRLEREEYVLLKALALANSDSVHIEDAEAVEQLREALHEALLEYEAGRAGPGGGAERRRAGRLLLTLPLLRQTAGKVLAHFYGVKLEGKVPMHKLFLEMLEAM
Assay: TR-FRET assay (disruption of co-activator peptide binding to ERR1 LBD)
Assay type: biochemical
Conditions: 6 nM 6His-ERR1LBD, 6 nM GST-SRC-2 peptide; average of 3 independent experiments
Outline: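 His-tagged ERR1 ligand-binding domain and GST-labelled SRC-2 peptide, each 6 nM, equilibrated at 25° C for 4-18 h in Tris pH 8/Hepes/KCl/DTT/delipidated BSA buffer. Compound-induced loss of co-activator binding read as Eu cryptate→XL665 energy transfer; values from hyperbolic curve fits averaged over 3 independent runs.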

Q: How did the pEC50 turn out when `O=C1S/C(=C\c2ccc3c(cnn3Cc3ccc(Cl)cc3C(F)(F)F)c2)C(=O)N1CCN1CCC(C(O)CO)CC1` (centres unmarked) [Compound 283, (5Z)-5-({1-[4-Chloro-2-(trifluoromethyl)benzyl]-1H-indazol-5-yl}methylidene)-3-{2-[4-(1,2-dihydroxyethyl)piperidin-1-yl]ethyl}-1,3-thiazolidine-2,4-dione] was run?
A: 6.28

Q: How did the pEC50 turn out when `O=C1S/C(=C\c2ccc3c(cnn3Cc3ccc(Cl)cc3C(F)(F)F)c2)C(=O)N1C[C@@H]1CCCN1` [Compound 145, (5Z)-5-({1-[4-Chloro-2-(trifluoromethyl)benzyl]-1H-indazol-5-yl}methylidene)-3-[(2S)-pyrrolidin-2-ylmethyl]-1,3-thiazolidine-2,4-dione] was run?
A: 7.57

Q: With `O=C(O)[C@H](CO)N1C(=O)S/C(=C\c2ccc3c(cnn3Cc3ccc(Cl)cc3C(F)(F)F)c2)C1=O` [Compound 221, (2S)-2-[(5Z)-5-({1-[4-Chloro-2-(trifluoromethyl)benzyl]-1H-indazol-5-yl}methylidene)-2,4-dioxo-1,3-thiazolidin-3-yl]-3-hydroxypropanoic acid] as the compound, how does the pEC50 read?
A: 7.21

Q: `O=C1S/C(=C\c2ccc3c(cnn3Cc3ccc(Cl)cc3C(F)(F)F)c2)C(=O)N1CCN1CCNS1(=O)=O` [Compound 337, (5Z)-5-({1-[4-Chloro-2-(trifluoromethyl)benzyl]-1H-indazol-5-yl}methylidene)-3-[2-(1,1-dioxido-1,2,5-thiadiazolidin-2-yl)ethyl]-1,3-thiazolidine-2,4-dione] was tested. Which pEC50 did it give?
A: 7.33

Q: How did the pEC50 turn out when `[2H]C([2H])([2H])N1CC[C@@H](N2C(=O)S/C(=C\c3ccc4c(cnn4Cc4ccc(C(F)(F)F)cc4C(F)(F)F)c3)C2=O)[C@H](F)C1` (relative stereo) [Compound 330, (5Z)-5-({1-[2,4-Bis(trifluoromethyl)benzyl]-1H-indazol-5-yl}methylidene)-3-[trans-3-fluoro-1-(1,1,1-d3)-methylpiperidin-4-yl]-1,3-thiazolidine-2,4-dione] was run?
A: 7.04

Q: `CC(C)(C)NCCN1C(=O)S/C(=C\c2ccc3c(cnn3Cc3ccc(Cl)cc3C(F)(F)F)c2)C1=O` [Compound 46, (5Z)-3-[2-(tert-Butylamino)ethyl]-5-({1-[4-chloro-2-(trifluoromethyl)benzyl]-1H-indazol-5-yl}methylidene)-1,3-thiazolidine-2,4-dione] was tested. Which pEC50 did it give?
A: 7.72

Q: With `O=C(O)COCCN1C(=O)S/C(=C\c2ccc3c(cnn3Cc3ccc(Cl)cc3C(F)(F)F)c2)C1=O` [Compound 237, {2-[(5Z)-5-({1-[4-Chloro-2-(trifluoromethyl)benzyl]-1H-indazol-5-yl}methylidene)-2,4-dioxo-1,3-thiazolidin-3-yl]ethoxy}acetic acid] as the compound, how does the pEC50 read?
A: 7.01

Q: `O=C1S/C(=C\c2ccc3c(cnn3Cc3ccc(Cl)cc3C(F)(F)F)c2)C(=O)N1C1(C(=O)O)CCOCC1` [Compound 227, 4-[(5Z)-5-({1-[4-Chloro-2-(trifluoromethyl)benzyl]-1H-indazol-5-yl}methylidene)-2,4-dioxo-1,3-thiazolidin-3-yl]etrahydro-2H-pyran-4-carboxylic acid] was tested. Which pEC50 did it give?
A: 7.28

Q: `NC(=O)CN1CCN(N2C(=O)S/C(=C\c3ccc4c(cnn4Cc4ccc(Cl)cc4C(F)(F)F)c3)C2=O)CC1` [Compound 353, 2-{4-[(5Z)-5-({1-[4-Chloro-2-(trifluoromethyl)benzyl]-1H-indazol-5-yl}methylidene)-2,4-dioxo-1,3-thiazolidin-3-yl]piperazin-1-yl}acetamide] was tested. Which pEC50 did it give?
A: 7.96

Q: How did the pEC50 turn out when `CN(C)CCN1C(=O)S/C(=C\c2ccc3c(ccn3Cc3ccc(C(F)(F)F)cc3C(F)(F)F)c2)C1=O` [Compound 240, (5Z)-5-[(1-{[2,4-Bis(trifluoromethyl)-phenyl]methyl}-1H-indol-5-yl)methylidene]-3-[2-(dimethylamino)ethyl]-1,3-thiazolidine-2,4-dione] was run?
A: 7.15

Q: `O=C1S/C(=C\c2ccc3c(ccn3Cc3ccc(Cl)cc3C(F)(F)F)c2)C(=O)N1CCN1CCOCC1` [Compound 254, (5Z)-5-({1-[4-Chloro-2-(trifluoromethyl)benzyl]-1H-indol-5-yl}methylidene)-3-(2-morpholin-4-ylethyl)-1,3-thiazolidine-2,4-dione] was tested. Which pEC50 did it give?
A: 6.49

Q: With `O=C1S/C(=C\c2ccc3c(cnn3Cc3ccc(F)cc3C(F)(F)F)c2)C(=O)N1[C@@H]1CCNC[C@H]1O` (relative stereo) [Compound 272, (5Z)-5-({1-[4-Fluoro-2-(trifluoromethyl)-benzyl]-1H-indazol-5-yl}methylidene)-3-[trans-3-hydroxypiperidin-4-yl]-1,3-thiazolidine-2,4-dione] as the compound, how does the pEC50 read?
A: 6.82

Q: `CN1CCC(F)(CN2C(=O)S/C(=C\c3ccc4c(cnn4Cc4ccc(Cl)cc4C(F)(F)F)c3)C2=O)CC1` [Compound 304, (5Z)-5-({1-[4-Chloro-2-(trifluoromethyl)benzyl]-1H-indazol-5-yl}methylidene)-3-[(4-fluoro-1-methylpiperidin-4-yl)methyl]-1,3-thiazolidine-2,4-dione] was tested. Which pEC50 did it give?
A: 8.15

Q: With `O=C1S/C(=C\c2ccc3c(cnn3Cc3ccc(Cl)cc3C(F)(F)F)c2)C(=O)N1C[C@@H]1C[C@@H](O)CN1` [Compound 182, (5Z)-5-({1-[4-Chloro-2-(trifluoromethyl)benzyl]-1H-indazol-5-yl}methylidene)-3-{[(2S,4R)-4-hydroxypyrrolidin-2-yl]methyl}-1,3-thiazolidine-2,4-dione] as the compound, how does the pEC50 read?
A: 7.02

Q: How did the pEC50 turn out when `O=C1S/C(=C\c2ccc3c(cnn3Cc3ccc(Cl)cc3C(F)(F)F)c2)C(=O)N1[C@@H]1CCNC[C@H]1F` (relative stereo) [Compound 273, (5Z)-5-({1-[4-Chloro-2-(trifluoromethyl)benzyl]-1H-indazol-5-yl}methylidene)-3-(trans-3-fluoropiperidin-4-yl)-1,3-thiazolidine-2,4-dione] was run?
A: 7.47

Q: `CC(=O)Nc1nc(CN2C(=O)S/C(=C\c3ccc4c(cnn4Cc4ccc(Cl)cc4C(F)(F)F)c3)C2=O)cs1` [Compound 413, N-(4-{[(5Z)-5-({1-[4-Chloro-2-(trifluoromethyl)benzyl]-1H-indazol-5-yl}methylidene)-2,4-dioxo-1,3-thiazolidin-3-yl]methyl}-1,3-thiazol-2-yl)acetamide] was tested. Which pEC50 did it give?
A: 6.51

Q: How did the pEC50 turn out when `O=C(O)C(C1CCOCC1)N1C(=O)S/C(=C\c2ccc3c(cnn3Cc3ccc(Cl)cc3C(F)(F)F)c2)C1=O` (centres unmarked) [Compound 219, [(5Z)-5-({1-[4-Chloro-2-(trifluoromethyl)benzyl]-1H-indazol-5-yl}methylidene)-2,4-dioxo-1,3-thiazolidin-3-yl](tetrahydro-2H-pyran-4-yl)acetic acid] was run?
A: 7.38

Q: With `O=C1S/C(=C\c2ccc3c(c2)nnn3Cc2ccc(Cl)cc2C(F)(F)F)C(=O)N1Cc1nnn[nH]1` [Compound 265, (5Z)-5-({1-[4-Chloro-2-(trifluoromethyl)benzyl]-1H-benzotriazol-5-yl}methylidene)-3-(1H-tetrazol-5-ylmethyl)-1,3-thiazolidine-2,4-dione] as the compound, how does the pEC50 read?
A: 7.40

Q: `CS(=O)(=O)NCCN1C(=O)S/C(=C\c2ccc3c(cnn3Cc3ccc(Cl)cc3C(F)(F)F)c2)C1=O` [Compound 393, N-{2-[(5Z)-5-({1-[4-Chloro-2-(trifluoromethyl)benzyl]-1H-indazol-5-yl}methylidene)-2,4-dioxo-1,3-thiazolidin-3-yl]ethyl}methanesulfonamide] was tested. Which pEC50 did it give?
A: 7.49

Q: How did the pEC50 turn out when `CS(=O)(=O)CCN1C(=O)S/C(=C\c2ccc3c(cnn3Cc3ccc(Cl)cc3C(F)(F)F)c2)C1=O` [Compound 129, (5Z)-5-({1-[4-Chloro-2-(trifluoromethyl)benzyl]-1H-indazol-5-yl}methylidene)-3-[2-(methylsulfonyl)ethyl]-1,3-thiazolidine-2,4-dione] was run?
A: 7.74

Q: With `O=C1S/C(=C\c2ccc3c(cnn3Cc3ccc(Cl)cc3C(F)(F)F)c2)C(=O)N1CCN1CC[C@H](O)C1` [Compound 1] as the compound, how does the pEC50 read?
A: 6.89

Q: `COc1ccc(Cn2ncc3cc(/C=C4\SC(=O)N(CCN5CCN(CCO)CC5)C4=O)ccc32)c(C(F)(F)F)c1` [Compound 16, (5Z)-3-{2-[4-(2-Hydroxyethyl)piperazin-1-yl]ethyl}-5-({1-[4-methoxy-2-(trifluoromethyl)benzyl]-1H-indazol-5-yl)methylidene)-1,3-thiazolidine-2,4-dione] was tested. Which pEC50 did it give?
A: 7.15

Q: With `O=C(O)C(Cc1cccnc1)N1C(=O)S/C(=C\c2ccc3c(cnn3Cc3ccc(Cl)cc3C(F)(F)F)c2)C1=O` (centres unmarked) [Compound 225, 2-[(5Z)-5-({1-[4-Chloro-2-(trifluoromethyl)benzyl]-1H-indazol-5-yl}methylidene)-2,4-dioxo-1,3-thiazolidin-3-yl]-3-pyridin-3-ylpropanoic acid] as the compound, how does the pEC50 read?
A: 7.49

Q: With `CN1CC[C@@H](N2C(=O)S/C(=C\c3ccc4c(cnn4Cc4ccc(C(F)(F)F)cc4C(F)(F)F)c3)C2=O)[C@H](O)C1` (relative stereo) [Compound 276, (5Z)-5-({1-[2,4-Bis(trifluoromethyl)benzyl]-1H-indazol-5-yl}methylidene)-3-[trans-3-hydroxy-l-methylpiperidin-4-yl]-1,3-thiazolidine-2,4-dione] as the compound, how does the pEC50 read?
A: 7.54

Q: How did the pEC50 turn out when `O=C(O)C(C1CCNCC1)N1C(=O)S/C(=C\c2ccc3c(cnn3Cc3ccc(Cl)cc3C(F)(F)F)c2)C1=O` (centres unmarked) [Compound 224, [(5Z)-5-({1-[4-Chloro-2-(trifluoromethyl)benzyl]-1H-indazol-5-yl}methylidene)-2,4-dioxo-1,3-thiazolidin-3-yl](piperidin-4-yl)acetic acid] was run?
A: 7.66

Q: How did the pEC50 turn out when `CCN(CC)CCN1C(=O)S/C(=C\c2ccc3c(cnn3Cc3ccc(OC)cc3C(F)(F)F)c2)C1=O` [Compound 18, (5Z)-3-[2-(Diethylamino)ethyl]-5-({1-[4-methoxy-2-(trifluoromethyl)benzyl]-1H-indazol-5-yl}methylidene)-1,3-thiazolidine-2,4-dione] was run?
A: 7.70
